Experimental data as given in patent US4783402A, “Production of primary or secondary alcohol derivatives of phospholipids by the enzymatic technique” (Meito Sangyo Kabushiki Kaisha, priority 1983, dated 1988).

Key:
[1] = test system: phospholipase DM derived from the Actinomadura strain (Actinomadura sp. No. 362, FERM-P No. 6132; BP 511); test: Influences of various substances on enzyme activity (choline oxidase method, egg-yolk lecithin substrate); assay type: biochemical; settings: substance at 1 mM in the enzyme reaction system, added instead of the aqueous calcium chloride solution; lecithin emulsion, Tris-HCl pH 7.2, 37° C., 20 minutes
Experimental: (§1) The enzyme activity of the phospholipase DM utilized in the process of this invention is determined by measuring the amount of a base which is formed when the phospholipase DM acts on the substrate glycerophospholipid to decompose the ester linkage between phosphoric acid and the nitrogen-containing base. Unless otherwise indicated, the activity of phospholipase DM is measured by the choline oxidase method to be described hereinafter.
(§2) Distilled water (0.15 ml), 0.1 ml of 0.2M Tris-HCl buffer (pH 7.2) and 0.05 ml of 0.1M aqueous calcium chloride solution are mixed with 0.1 ml of 1% emulsion of purified lecithin from egg yolk (an emulsion of 0.1 g of lecithin, 1 ml of ethyl ether and 10 ml of distilled water obtained by ultrasonication). To the mixture is added 0.1 ml of an enzyme solution and reacted at 37° C. for 20 minutes. Then, 0.2 ml of 1M Tris-HCl buffer (pH 8.0) containing 50 mM disodium ethylenediamine tetraacetate, and immediately then, the mixture is boiled for 5 minutes, followed by completely stopping the reaction. Then, 4 ml of a solution obtained by dissolving a choline color-forming agent contained in a kit of a reagent for choline esterase measurement (produced by Nippon Shoji Co., Ltd.) in a color dissolving liquid is added, and reacted at 37° C. for 20 minutes. Then, the absorbance of the reaction solution at 500 nm is measured.
(§3) As a control, the absorbance of the product obtained by the same procedure as above except that an enzyme solution previously deactivated by heat is used.
(§4) The activity of the enzyme to liberate 1 micromole of choline per minute is defined as one unit.
(§5) In the method of measuring the activity of the enzyme described hereinabove, 0.05 ml of an aqueous solution of each of various substances is added instead of the aqueous calcium chloride solution so that its concentration in the enzyme reaction system becomes 1 mM. The activity of the enzyme is then measured. The activity of the enzyme at the time of adding water is taken as 100, and the relative activity of the enzyme is determined.

[2] = test system: phospholipase DM derived from the Nocardiopsis strain (Nocardiopsis sp. No. 779, FERM-P No. 6133; BP 512); test: as above; assay type: biochemical; settings: substance at 1 mM in the enzyme reaction system, added instead of the aqueous calcium chloride solution; lecithin emulsion, Tris-HCl pH 7.2, 37° C., 20 minutes
Experimental: as §1, §2, §3, §4, §5

Row | Structure (SMILES) | influence on the activity of the enzyme (relative activity, activity at the time of adding water taken as 100) [1] | influence on the activity of the enzyme (relative activity, activity at the time of adding water taken as 100) [2]
1 | CC(C)O [isopropanol] | activating action | activating action
2 | CCO [ethanol] | activating action | activating action
3 | CC(C)(C)O [t-butanol] | activating action | activating action
